# Laboratory results published in patent US7169789B2 (Kirin Beer Kabushiki Kaisha, priority 1999, dated 2007).
# Tests used:
# [1] = test system: activation of MAPK within vascular endothelial cells induced by VEGF stimulation; assay: Inhibitory activity against activation of MAPK within vascular endothelial cells induced by VEGF stimulation; format: cell-based; details: human funicular venous vascular endothelial cells, VEGF 50 ng/ml, phosphorylated MAPK by immunoblotting
# Summary of the method: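 Serum-starved (0.5% FCS, 24 h) human umbilical vein endothelial cells pretreated with compound 1 h at 37 °C, then stimulated with 50 ng/ml recombinant human VEGF for 8 min.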
# [2] = test system: A375 human melanoma cells; assay: Karyomorphosis test; format: cell-based; details: test compound 10 μM and 1 μM, 48 hr, nuclei stained with propidium iodide
# Description: A375 human melanoma cells (2×10^4) (obtained from Japanese Foundation for Cancer Research) were incolulated on a culture slide (manufactured by Falcon) and were cultured at 37° C. After the elapse of 5 hr from the initiation of the cultivation, the test compound was added to 10 μM and 1 μM, and the cultivation was continued for additional 48 hr. After the fixation of cells, 50 μg/ml propidium iodide solution containing ribonuclease (200 μg/ml) was added to stain nuclei. The stained nuclei were observed under a fluorescent microscope to analyze the nuclei for abnormality of karyomorphosis.
IC50 [1] [nM],IC50 ([1]; Endothelial cell) [nM],SMILES,Change in morphosis [2]
2.5,,"COc1cc2nccc(Oc3ccc(NC(=O)Nc4ccccc4C)c(C)c3C)c2cc1OC [Example 31, N-{4-[(6,7-Dimethoxy-4-guinolyl)oxy]-2,3-dimethylphenyl}-N′-(2-methylphenyl)urea]",(−) (the change in karyomorphosis of cells did not take place at 10 μM)
,2.8,"COCCOc1cc2nccc(Oc3ccc(NC(=O)Nc4ccccc4OC)c(Cl)c3)c2cc1OC [Example 55, N-(2-Chloro-4-{[6-methoxy-7-(2-methoxyethoxy)-4-quinolyl]oxy}phenyl)-N′-(2-methoxyphenyl)urea]",(−) (the change in karyomorphosis of cells did not take place at 10 μM)
,0.4,"COc1ccc(NC(=O)Nc2ccc(Oc3ccnc4cc(OC)c(OC)cc34)cc2Cl)cc1.Cl [Example 22, N-{2-Chloro-4-[(6,7-dimethoxy-4-quinolyl)oxy]phenyl}-N′-(4-methoxyphenyl)urea hydrochloride]",(−) (the change in karyomorphosis of cells did not take place at 10 μM)
,3.4,"COc1cc2nccc(Oc3ccc(NC(=O)Nc4cccc(C)n4)c(Cl)c3)c2cc1OC [Example 21, N-{2-Chloro-4-[(6,7-dimethoxy-4-quinolyl)oxy]phenyl}-N′-(6-methyl-2-pyridyl)urea]",(−) (the change in karyomorphosis of cells did not take place at 10 μM)
,12,"COc1cc2nccc(Oc3cc(C)c(NC(=O)Nc4ccc(F)cc4C)cc3C)c2cc1OC [Example 40, N-{4-[(6,7-Dimethoxy-4-quinolyl)oxy]-2,5-dimethylphenyl}-N′-(4-fluoro-2-methylphenyl)urea]",(−) (the change in karyomorphosis of cells did not take place at 10 μM)
,3.7,"COc1cc2nccc(Oc3ccc(NC(=O)Nc4cccc(C)n4)c(C)c3C)c2cc1OC [Example 35, N-{4-[(6,7-Dimethoxy-4-quinolyl)oxy]-2,3-dimethylphenyl}-N′-(6-methyl-2-pyridyl)urea]",(−) (the change in karyomorphosis of cells did not take place at 10 μM)
5.3,,"COc1cc2nccc(Oc3ccc(NC(=O)Nc4cccc(F)c4OC)c(C)c3C)c2cc1OC [Example 26, N-{4-[(6,7-Dimethoxy-4-guinolyl)oxy]-2,3-dimethylphenyl}-N′-(3-fluoro-2-methoxyphenyl)urea]",(−) (the change in karyomorphosis of cells did not take place at 10 μM)
,4.9,"COc1cc2nccc(Oc3cc(C)c(NC(=O)Nc4cccc(F)c4OC)cc3C)c2cc1OC [Example 41, N-{4-[(6,7-Dimethoxy-4-quinolyl)oxy]-2,5-dimethylphenyl}-N′-(3-fluoro-2-methoxyphenyl)urea]",(−) (the change in karyomorphosis of cells did not take place at 10 μM)
,3.8,"COc1ccccc1NC(=O)Nc1cc(C)c(Oc2ccnc3cc(OC)c(OC)cc23)cc1C [Example 43, N-{4-[(6,7-Dimethoxy-4-quinolyl)oxy]-2,5-dimethylphenyl}-N′-(2-methoxyphenyl)urea]",(−) (the change in karyomorphosis of cells did not take place at 10 μM)
1.7,,"COc1ccccc1NC(=O)Nc1ccc(Oc2ccnc3cc(OC)c(OC)cc23)c(C)c1C [Example 30, N-{4-[(6,7-Dimethoxy-4-guinolyl)oxy]-2,3-dimethylphenyl}-N′-(2-methoxyphenyl)urea]",(−) (the change in karyomorphosis of cells did not take place at 10 μM)
5.1,,COCCOc1cc2nccc(Oc3cc(C)c(NC(=O)Nc4ccc(F)cc4F)cc3C)c2cc1OC [Example 58],(−) (the change in karyomorphosis of cells did not take place at 10 μM)
5.9,,"COc1cc2nccc(Oc3cc(C)c(NC(=O)Nc4ccccc4C)cc3C)c2cc1OC [Example 42, N-{4-[(6,7-Dimethoxy-4-guinolyl)oxy]-2,5-dimethylphenyl}-N′-(2-methylphenyl)urea]",(−) (the change in karyomorphosis of cells did not take place at 10 μM)
